Results reported in patent US12377076B2, “Compounds for treating lymphoma or a T-cell malignant disease” (Purdue Pharma L.P., priority 2018, dated 2025).
Values joined by “and” are separate entries in the source; they are usually repeats but may differ in a detail not shown here. Identical values can stand only once. “Also recorded” adds a separate entry of the source.

Assays:
[1] = test system: patients with relapsed/refractory hematologic malignancies; test: Phase 1 dose escalation trial: safety, TEAEs, DLTs, MTD; type: in vivo, human
Experimental: A phase 1 trial was carried out including a dose escalation study to investigate the safety, pharmacokinetic (PK) profiles and efficacy of tinostamustine (EDO-S101) in relapsed/refractory hematologic malignancies.
The patient had relapsed/refractory hematologic malignancies for which there are no available therapies.
The assessment of dose-limiting toxicities (DLTs) was based on cycle 1 events alone. Toxicities were assessed regarding type and severity using the National Cancer Institute (NCI) Common Terminology Criteria for Adverse Events (CTCAE) version 4.03, June 2010. Toxicity data were collected for all patients throughout their time on study. Infusion site reactions were assessed using the Phlebitis Scale developed by the Infusion Nurses Society (2011).
DLTs, which were at least possibly related to study drug, were defined as: • Any Grade 3 or 4 non-hematologic toxicity (excluding alopecia and easily correctable electrolyte abnormalities); • Nausea, vomiting or diarrhoea that persists beyond 10 days despite aggressive symptomatic treatment; • Grade 4 neutropenia or thrombocytopenia lasting for 7 days or more; • Any grade 2 or more toxicity, but persist for over 3 weeks; and • Any toxicity resulting in a delay of the next dose administration (cycle 2 day 1≥14).
To ensure patients' safety, the stopping rules were implemented to the dose escalation stage of the study.
Other safety assessments included physical examinations, Eastern Cooperative Oncology Group (ECOG) performance status determinations, electrocardiograms (ECGs), pregnancy testing for women of childbearing potential, documentation of treatment-emergent adverse events (TEAEs), clinical laboratory evaluations including haematology, blood chemistry and urinalysis, vital signs, and documentation of concomitant medication usage.
If there is no DLT observed in any of these subjects, the trial proceeds to enroll additional subjects into the next higher dose cohort. If one subject develops a DLT at a specific dose, an additional three subjects are enrolled into that same dose cohort.

patients with lymphoma = test: Tumour assessment: response to treatment, patients with lymphoma; type: in vivo, human
Source text: Response to treatment included evaluation of overall response rate (patients with a CR plus patients with a PR), clinical benefit (CB) rate (patients with CR plus patients with PR plus patients with stable disease (SD)), progression free survival, and overall survival according to the relevant response criteria.

[2] = all cohorts administered over 30 or 45 minutes
[3] = clinical chemistry TEAE, All Patients (N = 46)
[4] = clinical chemistry TEAE, all patients
[5] = doses of 20 to 80 mg/m^2, cohorts 20/60 to 120/60
[6] = doses of 100 or 120 mg/m^2, cohorts 20/60 to 120/60
[7] = patients with normal or grade 1 or 2 values at baseline

## Cn1c(CCCCCCC(=O)NO)nc2cc(N(CCCl)CCCl)ccc21 [tinostamustine]
[1]; 100 mg/m^2 over 60 minutes
  DLTs in cycle 1: no dose-limiting toxicities
  patients with Grade 3 and 4 thrombocytopenia in C2 and C3 leading to withdrawal: three
[1]; Patients (N = 46)
  Grade 3 TEAE: 28 (60.8)
  Grade 4 TEAE: 13 (28.2)
  Infusion site phlebitis: 1 (2.1)
  SAE: 8 (17.4)
  TEAE leading to early study discontinuation: 11 (23.9)
  TEAE with outcome of death: 0 (0)
[1]; Patients (N = 46), number (percent)
  TEAE: 42 (91.3)
[1]; Patients (N = 46), relationship possible, probable or definite
  Treatment-related TEAE: 38 (82.6)
[1]; administered over 30 or 45 minutes
  incidence of leukopenia: 16%
[1]; administered over 60 minutes
  incidence of leukopenia: 27%
  incidence of thrombocytopenia: 58%
[1]; administered over 60 minutes, subset of patients with MM (N=11)
  maximum tolerated dose (MTD): 100 mg/m^2
[1]; all 46 patients
  SAE dyspnea: 2%
  SAE febrile neutropenia: 2%
  SAE hypersensitivity: 2%
  SAE osteomyelitis: 2%
  SAE pleural effusion: 2%
  SAE pneumonia: 2%
  SAE sepsis: 2%
  TEAE with an outcome of death (grade 5 TEAE): No patient
  anaphylactic reaction leading to study drug discontinuation: 2%
  blood and lymphatic system disorders: 54%
  discontinuation for adverse events (AE): 29%
  febrile neutropenia leading to study drug discontinuation: 2%
  gastrointestinal (GI) disorders: 52%
  general disorders and administration site conditions: 50%
  grade 3/4 anemia: 22%
  grade 3/4 leukopenia/WBC decreased: 15% and 16%
  grade 3/4 lymphopenia: 8.6%
  grade 3/4 neutropenia/neutrophil count decreased: 29%
  grade 3/4 thrombocytopenia: 39% and 40%
  hypersensitivity leading to study drug discontinuation: 2%
  incidence of all other TEAEs: < 20%
  incidence of nausea: 29%
  infusion-site phlebitis events: 2%
  neutropenia leading to study drug discontinuation: 4%
  patients who discontinued study drug because of a TEAE: 23%
  patients with a grade 3 or 4 TEAE: 63%
  patients with at least 1 grade 3 TEAE: 60%
  patients with at least 1 grade 4 TEAE: 28%
  patients with at least 1 serious adverse event (SAE): 18%
  patients with at least one TEAE: 91%
  patients with at least one study drug-related TEAE: 38 patients
  pleural effusion leading to study drug discontinuation: 2%
  pruritus leading to study drug discontinuation: 2%
  thrombocytopenia leading to study drug discontinuation: 15%
[1]; all 46 patients, any grade
  incidence of anaemia: 39%
  incidence of leukopenia/WBC decreased: 21% and 22%
  incidence of neutropenia/neutrophil count decreased: 29% and 28%
  incidence of thrombocytopenia/platelet count decreased: 52%
[1]; all 46 patients, grade 3, HM120/60 cohort
  SAE thrombocytopenia: 2%
[1]; [2]
  incidence of anaemia: 37%
  incidence of thrombocytopenia: 47%
[1]; all patients
  thrombocytopenia leading to study drug and/or study discontinuation: 19%
[1]; [3]
  Blood alkaline phosphatase increased: 1 (2.1) n (%)
  Blood magnesium decreased: 1 (2.1) n (%)
  Blood potassium decreased/hypokalaemia: 5 (10.8) n (%)
  C-reactive protein increased: 2 (4.3) n (%)
  Hyperglycaemia: 1 (2.1) n (%)
  Hyperuricemia: 1 (2.1) n (%)
  blood creatinine increased: 4 (8.6) n (%)
[1]; [4]
  C-reactive protein increased: 4%
  blood creatinine increased: 9%
  blood potassium decreased/hypokalemia: 11%
[1]; considered unrelated to study drug
  grade 3 hyperuricemia: 2%
[1]; dose cohort of 120/60
  DLTs that occurred: Grade 4 thrombocytopenia lasting for 7 days or more; also recorded: Prolonged thrombocytopenia/toxicity resulting in the delay of the next dose administration
[1]; doses of 20 to 80 mg/m^2
  incidence of grade 3 or 4 anaemia: 8%
[1]; [5]
  incidence of anaemia: 25%
  incidence of grade 3/4 thrombocytopenia: 8%
  incidence of leukopenia: 17%
  incidence of neutropenia: 25%
[1]; doses of 100 or 120 mg/m^2
  incidence of grade 3 or 4 anaemia: 36%
[1]; [6]
  incidence of anaemia: 64%
  incidence of grade 3/4 thrombocytopenia: 71%
  incidence of leukopenia: 36%
  incidence of neutropenia: 50%
[1]; human, in vivo, intravenous
  haematological nadir occurs: 17-23 day
[1]; in vivo
  patients who discontinued study drug and/or the study because of neutropenia: Two
  patients who discontinued study drug or the study because of leukopenia: No patient
  patients with treatment-emergent QTcF interval >500 msec: One
  treatment-emergent ECG abnormality indicated to be clinically significant: No patient
[1]; lymphoma and multiple myeloma patients
  MTD: 100 mg/m^2
[1]; lymphoma subpopulation
  MTD: 100 mg/m^2
[1]; lymphoma subpopulation, administered over 1 hour
  MAD: 120 mg/m^2
[1]; lymphoma, 120 mg/m^2 over 1 hour
  patients experiencing DLTs: Two out of six
[1]; one subject, MM 80/45 cohort, discontinuation visit three weeks after only dose, screening 423 msec
  QTcF interval: 677 ms
[1]; overall
  incidence of cardiac disorders: 11%
  study drug-related cardiac disorder, grade 1 palpitations: 2%
  tachycardia: 4%
[1]; [7]
  treatment-emergent grade 4 clinical chemistry abnormality, hyperuricemia: 2%
  treatment-emergent shift to grade 3 aspartate aminotransferase increased: 2%
  treatment-emergent shift to grade 3 hypoalbuminemia: 2%
[1]; shorter infusion times
  incidence of neutropenia: 16%
Patients with lymphoma; 27 patients with lymphoma
  CBR: 62%
  ORR: 40%
  best response CR: 11%
  best response PR: 30%
  best response SD: 22%
  best response of PD: 37%
Patients with lymphoma; LYM60 mg/m^2/30 min cohort
  ORR and CBR: 100%
